Results: PubChem BioAssay (NCI)
Several values for one entry are separate records, joined by “and”; a condition that tells them apart may be missing. Equal entries are not always repeated.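 1) Cells in 96-well plates. 2) Compound, 48 h, 5 concentrations. 3) Linear interpolation between surrounding doses. 4) Unreached endpoint = highest concentration. Here, GI50 denotes the concentration required for 50% inhibition of growth. TGI: total growth inhibition.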

What follows are compounds tested on SW-620 colon (assay: NCI tumour cell line growth inhibition, 48 h).
`FC(F)(F)c1cccc(Nc2nc(-c3ccccc3)nc3ncccc23)c1` gave a GI50 of 5.2 µM and a TGI of 24.7 µM. `O=C(Nc1ccccc1)c1c(O)[nH]c(=S)[nH]c1=O` was tested, and the GI50 was 74.4 µM and the TGI was 97.7 µM and > 250 µM. With `OC1CSSC1Cn1cnc2c(Nc3ccc(OCc4cccc(F)c4)c(Cl)c3)ncnc21` (centres undefined) the GI50 was 1.17 µM and the TGI was 4.54 µM. With `Nc1c(C(=O)c2cccc(CCS(N)(=O)=O)c2)cnn1-c1ccc(F)cc1` the GI50 was over 25 µM and the TGI was over 25 µM. With `OCc1cc2ccccc2c2c3c(ccc12)OCO3` the GI50 was 29 µM and the TGI was 118 µM. Compound `COc1cnc2c(c1)C(=O)c1c-2n(CCCN2CCOCC2)c(=O)c2cc(F)ccc12` has a GI50 of 0.149 µM and a TGI of over 100 µM. In the case of `C[C@@H](Oc1cc(-n2cnc3ccc(CN4CCN(C)CC4)cc32)sc1C(N)=O)c1ccccc1C(F)(F)F`, the GI50 is reported as < 0.01 µM and 0.00462 µM and the TGI is reported as 12.9 µM and > 10 µM. Work on `CCOC1Oc2ccccc2C(=O)/C1=C/Nc1ccc(C(C)=O)cc1` (centres undefined) yielded a GI50 of 26.7 µM and a TGI of 72.6 µM. In the case of `COc1cccc(-c2cc(-c3cccc(NS(C)(=O)=O)c3)nc(N)c2C#N)c1O`, the GI50 is reported as 0.0904 µM and the TGI is reported as over 100 µM. For `Cc1ccsc1C(=S)Nc1ccc(Cl)c(/C=N/OC(C)(C)C)c1`, the TGI was over 100 µM. For `NC(N)=NS(=O)(=O)c1ccc(Nc2c3ccccc3nc3c(C(=O)NCCO)cccc23)cc1`, the GI50 was 17.2 µM. In the case of `COc1cccc(C2c3cc4c(cc3OC(C)(N3CCCC3)C2C)OCO4)c1O` (centres undefined), the TGI is reported as over 100 µM. `CCN(CC)N=Nc1c(C(N)=O)n[nH]c1C` gave a TGI of over 100 µM. `O=C1NC(=NCCc2cccc(F)c2)S/C1=C\c1ccc2ncccc2c1` showed a GI50 of 0.819 µM and a TGI of over 25 µM.

These compounds were tested on SN12C renal (assay: NCI tumour cell line growth inhibition, 48 h).
`CN(C)c1ccc(/C=C\C2=[N+](C)c3ccccc3C2(C)C)cc1` was tested, and the GI50 was 0.351 µM and the TGI was 14.6 µM. For `CC(=O)OC1OC([C@@H]2c3cccc(O)c3C(=O)c3c(O)cc(C)cc32)C(O)C(O)C1O` (some centres undefined), the GI50 was under 0.0179 µM and the TGI was under 0.0321 µM. With `Nc1nc(-n2c(-c3ccccc3)nc3c(Br)cc(Br)cc3c2=O)nnc1-c1cccc(Cl)c1Cl` the GI50 was 18.8 µM and the TGI was over 100 µM. For `C[N+](C)(C)CC(=O)N/N=C(/CC(=O)CC(C1=C(O)c2ccccc2OC1)c1ccccc1)C(=O)Nc1cccc(Cl)c1` (centres undefined), the TGI was over 100 µM. Compound `O=C1/C(=C/c2ccc(O)c(O)c2)CCC/C1=C\c1ccc(O)c(O)c1` has a TGI of 24.9 µM. With `COC(=O)/C=C1\S/C(=N\NC(=O)c2cc3ccc2/C=C\c2ccc(cc2)/C=C\3)N(c2ccccc2)C1=O` the GI50 was 2.27 µM and the TGI was 5.94 µM. In the case of `COC([CH2][Hg][n]1cnc2c1c(=O)n(C)c(=O)n2C)CN1C(=O)c2ccccc2S1(=O)=O` (centres undefined), the GI50 is reported as over 100 µM and the TGI is reported as over 100 µM. In the case of `COc1ccc(CC2c3cc4c(cc3CCN2C)OCO4)c(C=O)c1OC` (centres undefined), the TGI is reported as over 100 µM. With `CN1CCCCC1CCN1c2ccccc2Sc2ccc(Cl)cc21` (centres undefined) the GI50 was 3.65 µM and the TGI was 13.9 µM. In the case of `C=C(C)C(OC)C(O)CC1(C)CC(O)CC(C)(C2CCC3OC(C4(C)CCC(Br)C(C)(C)O4)CCC3(C)O2)O1` (centres undefined), the GI50 is reported as 18.3 µM and the TGI is reported as 39.4 µM. For `Cc1cc(-c2nc(C(=O)Nc3cc4oc(N5CCOCC5)nc4nc3N3CC[C@@H](O)C3)co2)ccn1`, the GI50 was 26 µM and the TGI was over 100 µM. For `COc1cc2c(cc1OCCCCN1CCN(CC(=O)Nc3ccc(Cl)cc3C(=O)c3ccccc3Cl)CC1)N=CC1CCCN1C2=O` (centres undefined), the GI50 was 0.297 µM and the TGI was 1.14 µM. Work on `FC(F)(F)c1cccc(Nc2nc(-c3ccccc3)nc3ncccc23)c1` yielded a GI50 of 5 µM and a TGI of 64.3 µM. In the case of `O=C(Nc1ccccc1)c1c(O)[nH]c(=S)[nH]c1=O`, the TGI is reported as 112 µM. Compound `OC1CSSC1Cn1cnc2c(Nc3ccc(OCc4cccc(F)c4)c(Cl)c3)ncnc21` (centres undefined) has a GI50 of 4.02 µM and a TGI of 9.5 µM. `Nc1c(C(=O)c2cccc(CCS(N)(=O)=O)c2)cnn1-c1ccc(F)cc1` gave a GI50 of over 25 µM and a TGI of over 25 µM. `OCc1cc2ccccc2c2c3c(ccc12)OCO3` gave a GI50 of 29.1 µM and a TGI of 141 µM. In the case of `COc1cnc2c(c1)C(=O)c1c-2n(CCCN2CCOCC2)c(=O)c2cc(F)ccc12`, the GI50 is reported as 0.32 µM and the TGI is reported as over 100 µM. With `C[C@@H](Oc1cc(-n2cnc3ccc(CN4CCN(C)CC4)cc32)sc1C(N)=O)c1ccccc1C(F)(F)F` the GI50 was 0.116 µM and 0.2 µM and the TGI was 12.1 µM and > 10 µM. Work on `CCOC1Oc2ccccc2C(=O)/C1=C/Nc1ccc(C(C)=O)cc1` (centres undefined) yielded a GI50 of 19.4 µM and a TGI of 47.8 µM. Work on `COc1cccc(-c2cc(-c3cccc(NS(C)(=O)=O)c3)nc(N)c2C#N)c1O` yielded a GI50 of 0.505 µM and a TGI of over 100 µM. In the case of `Cc1ccsc1C(=S)Nc1ccc(Cl)c(/C=N/OC(C)(C)C)c1`, the TGI is reported as over 100 µM. `NC(N)=NS(=O)(=O)c1ccc(Nc2c3ccccc3nc3c(C(=O)NCCO)cccc23)cc1` gave a GI50 of 26.7 µM. `COc1cccc(C2c3cc4c(cc3OC(C)(N3CCCC3)C2C)OCO4)c1O` (centres undefined) was tested, and the TGI was 48.6 µM. Work on `CCN(CC)N=Nc1c(C(N)=O)n[nH]c1C` yielded a TGI of over 100 µM. `O=C1NC(=NCCc2cccc(F)c2)S/C1=C\c1ccc2ncccc2c1` showed a GI50 of over 16 µM and a TGI of over 25 µM. `Cc1ccc2c(C)c3c(ccc4ccccc43)c[n+]2c1` gave a GI50 of 2.18 µM and a TGI of 18.2 µM.

These compounds were tested on M14 melanoma (assay: NCI tumour cell line growth inhibition, 48 h).
`CN(C)c1ccc(/C=C\C2=[N+](C)c3ccccc3C2(C)C)cc1` gave a GI50 of 1.91 µM and a TGI of over 38.2 µM. Compound `CC(=O)OC1OC([C@@H]2c3cccc(O)c3C(=O)c3c(O)cc(C)cc32)C(O)C(O)C1O` (some centres undefined) has a GI50 of 0.12 µM and a TGI of 1.9 µM. `Nc1nc(-n2c(-c3ccccc3)nc3c(Br)cc(Br)cc3c2=O)nnc1-c1cccc(Cl)c1Cl` showed a GI50 of 2.64 µM and a TGI of 8.42 µM. `C[N+](C)(C)CC(=O)N/N=C(/CC(=O)CC(C1=C(O)c2ccccc2OC1)c1ccccc1)C(=O)Nc1cccc(Cl)c1` (centres undefined) showed a TGI of over 100 µM. For `O=C1/C(=C/c2ccc(O)c(O)c2)CCC/C1=C\c1ccc(O)c(O)c1`, the TGI was 18.4 µM. In the case of `COC(=O)/C=C1\S/C(=N\NC(=O)c2cc3ccc2/C=C\c2ccc(cc2)/C=C\3)N(c2ccccc2)C1=O`, the GI50 is reported as 3.27 µM and the TGI is reported as 15.4 µM. `COC([CH2][Hg][n]1cnc2c1c(=O)n(C)c(=O)n2C)CN1C(=O)c2ccccc2S1(=O)=O` (centres undefined) was tested, and the GI50 was over 100 µM and the TGI was over 100 µM. `COc1ccc(CC2c3cc4c(cc3CCN2C)OCO4)c(C=O)c1OC` (centres undefined) showed a TGI of over 100 µM. `CN1CCCCC1CCN1c2ccccc2Sc2ccc(Cl)cc21` (centres undefined) was tested, and the GI50 was 2.02 µM and the TGI was 3.97 µM. `C=C(C)C(OC)C(O)CC1(C)CC(O)CC(C)(C2CCC3OC(C4(C)CCC(Br)C(C)(C)O4)CCC3(C)O2)O1` (centres undefined) was tested, and the GI50 was 17.4 µM and the TGI was 32.7 µM. With `Cc1cc(-c2nc(C(=O)Nc3cc4oc(N5CCOCC5)nc4nc3N3CC[C@@H](O)C3)co2)ccn1` the GI50 was 35.9 µM and the TGI was over 100 µM. `FC(F)(F)c1cccc(Nc2nc(-c3ccccc3)nc3ncccc23)c1` gave a GI50 of 3.79 µM and a TGI of 16.5 µM. Compound `O=C(Nc1ccccc1)c1c(O)[nH]c(=S)[nH]c1=O` has a TGI of 108 µM. In the case of `OC1CSSC1Cn1cnc2c(Nc3ccc(OCc4cccc(F)c4)c(Cl)c3)ncnc21` (centres undefined), the GI50 is reported as 0.0912 µM and the TGI is reported as 0.288 µM. `Nc1c(C(=O)c2cccc(CCS(N)(=O)=O)c2)cnn1-c1ccc(F)cc1` was tested, and the GI50 was over 25 µM and the TGI was over 25 µM. `OCc1cc2ccccc2c2c3c(ccc12)OCO3` gave a GI50 of 41.2 µM and a TGI of 169 µM. In the case of `COc1cnc2c(c1)C(=O)c1c-2n(CCCN2CCOCC2)c(=O)c2cc(F)ccc12`, the GI50 is reported as 0.288 µM and the TGI is reported as over 100 µM. `C[C@@H](Oc1cc(-n2cnc3ccc(CN4CCN(C)CC4)cc32)sc1C(N)=O)c1ccccc1C(F)(F)F` gave a GI50 of 0.0123 µM and a TGI of 2.31 µM. `CCOC1Oc2ccccc2C(=O)/C1=C/Nc1ccc(C(C)=O)cc1` (centres undefined) gave a GI50 of 17.4 µM and a TGI of 35.9 µM. For `COc1cccc(-c2cc(-c3cccc(NS(C)(=O)=O)c3)nc(N)c2C#N)c1O`, the GI50 was 0.0837 µM and the TGI was over 100 µM. Work on `Cc1ccsc1C(=S)Nc1ccc(Cl)c(/C=N/OC(C)(C)C)c1` yielded a TGI of over 100 µM. `NC(N)=NS(=O)(=O)c1ccc(Nc2c3ccccc3nc3c(C(=O)NCCO)cccc23)cc1` showed a GI50 of 26.3 µM. With `COc1cccc(C2c3cc4c(cc3OC(C)(N3CCCC3)C2C)OCO4)c1O` (centres undefined) the TGI was 14 µM. `CCN(CC)N=Nc1c(C(N)=O)n[nH]c1C` gave a TGI of over 100 µM. For `O=C1NC(=NCCc2cccc(F)c2)S/C1=C\c1ccc2ncccc2c1`, the GI50 was 3.6 µM and the TGI was over 25 µM. Compound `Cc1ccc2c(C)c3c(ccc4ccccc43)c[n+]2c1` has a GI50 of 14.1 µM and a TGI of 31.7 µM.
